Assay results taken from patent publication US10065967B2, “Compounds that are ERK inhibitors” (Merck Sharp & Dohme Corp., priority 2013, dated 2018).
Where a name gives a salt, the structure may show the parent alone.

Molecular target: Active Human ERK2 (hERK2) (Homo sapiens (Human), UniProt P28482)
Assay: Active Human ERK2 (hERK2) Activity Assay (IMAP-FP)
Format: biochemical
Conditions: phosphorylated active hERK2 0.5 nM, 30 μM ATP, 10 point titration, read-out: ERK 2 Human average IC50
Procedure: Assays Active Human ERK2 (hERK2) Activity Assay:
Activated ERK2 activity was determined in an IMAP-FP assay (Molecular Devices). Using this assay format, the potency (IC50) of each compound was determined from a 10 point (1:3 serial dilution, 3 μM starting compound concentration) titration curve using the following outlined procedure. […] Following a 15 minute compound & enzyme incubation, each reaction was initiated by the addition of 10 μL kinase buffer containing 2.45 μM ERK2 IMAP substrate peptides (2.25 μM-unlabeled peptide and 200 nM-labeled peptide, and 75 μM ATP. The final reaction in each well of 25 μL consists of 0.5 nM hERK2, 900 nM unlabeled peptide, 80 nM labeled-peptide, and 30 μM ATP. Phosphorylation reactions were allowed to proceed for 60 minutes and were immediately quenched by the addition of 60 μL IMAP detection beads (1:1000 dilutions) in IMAP binding buffer (Molecular Devices) with 24 mM NaCl. Plates were read on EnVision reader after 60 minutes binding equilibration using Fluorescence Polarization protocol (Perkin Elmer).

Active Human ERK2 (hERK2), sequence (P28482 whole entry): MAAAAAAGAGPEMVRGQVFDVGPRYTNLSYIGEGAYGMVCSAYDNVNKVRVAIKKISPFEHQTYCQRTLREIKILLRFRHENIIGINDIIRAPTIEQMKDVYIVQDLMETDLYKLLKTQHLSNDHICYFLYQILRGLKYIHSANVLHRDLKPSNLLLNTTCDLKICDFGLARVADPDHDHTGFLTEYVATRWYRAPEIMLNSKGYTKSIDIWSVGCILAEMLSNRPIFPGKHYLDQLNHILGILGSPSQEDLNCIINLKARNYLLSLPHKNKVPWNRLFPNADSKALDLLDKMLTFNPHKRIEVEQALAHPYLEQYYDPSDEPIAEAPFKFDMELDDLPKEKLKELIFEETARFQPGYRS

Which IC50 does the source give for `Cc1cc(-c2n[nH]c3cc4c(cc23)CN(Cc2cccc(C)n2)C(=O)N4)ccn1` [Example 21, 6-((6-methylpyridin-2-yl)methyl)-3-(2-methylpyridin-4-yl)-5,6-dihydro-1H-pyrazolo[4,3-g]quinazolin-7(8H)-one] here?
The IC50 was 0.6 nM.

With `Cc1cc(-c2n[nH]c3cc4c(cc23)CN([C@@H]2CCCCc3ccccc32)C(=O)N4)ccn1` [Example 22, (R)-3-(2-methylpyridin-4-yl)-6-(6,7,8,9-tetrahydro-5H-benzo[7]annulen-5-yl)-5,6-dihydro-1H-pyrazolo[4,3-g]quinazolin-7(8H)-one] as the molecule, how does the IC50 read?
The IC50 was 24 nM.

How did the IC50 turn out when `Cc1cc(-c2n[nH]c3cc4[nH]c(=O)n([C@H](C)c5ccccc5)c(=O)c4cc23)ccn1` [Example 23, (R)-3-(2-methylpyridin-4-yl)-6-(1-phenylethyl)-1H-pyrazolo[4,3-g]quinazoline-5,7(6H,8H)-dione] was run?
Its IC50 is 3.7 nM.

With `O=c1ccc2cc3c(N4CCOCC4)n[nH]c3cc2[nH]1` [Example 24, 3-morpholino-1H-pyrazolo[4,3-g]quinolin-7(8H)-one] as the molecule, how does the IC50 read?
The IC50 was 12 nM.

With `O=c1ccc2cc3c(N4CCCCC4)n[nH]c3cc2[nH]1` [Example 25, 3-(piperidin-1-yl)-1H-pyrazolo[4,3-g]quinolin-7(8H)-one] as the molecule, how does the IC50 read?
Its IC50 is 42 nM.

How did the IC50 turn out when `C[C@H](c1ccccc1)N1Cc2cc3c(-c4ccc(C#N)nc4)n[nH]c3cc2NC1=O` [Example 27, (R)-5-(7-oxo-6-(1-phenylethyl)-5,6,7,8-tetrahydro-1H-pyrazolo[4,3-g]quinazolin-3-yl)picolinonitrile] was run?
The IC50 was 10 nM.

How did the IC50 turn out when `COc1ncc(-c2n[nH]c3cc4c(cc23)CN([C@H](C)c2ccccc2)C(=O)N4)cn1` [Example 28, (R)-3-(2-methoxypyrimidin-5-yl)-6-(1-phenylethyl)-5,6-dihydro-1H-pyrazolo[4,3-g]quinazolin-7(8H)-one formate] was run?
The IC50 was 0.6 nM.

For `CC(=O)Nc1n[nH]c2cc3c(cc12)CN([C@H](C)c1ccccc1)C(=O)N3` [Example 34, (R)-N-(7-oxo-6-(1-phenylethyl)-5,6,7,8-tetrahydro-1H-pyrazolo[4,3-g]quinazolin-3-yl)acetamide], which IC50 is on record?
The IC50 was 2.3 nM.

With `COc1n[nH]c2cc3c(cc12)CN([C@H](C)c1ccccc1)C(=O)N3` [Example 35, (R)-3-methoxy-6-(1-phenylethyl)-5,6-dihydro-1H-pyrazolo[4,3-g]quinazolin-7(8H)-one] as the molecule, how does the IC50 read?
The IC50 was 114 nM.

For `COCCOc1n[nH]c2cc3c(cc12)CN([C@H](C)c1ccccc1)C(=O)N3` [Example 36, (R)-3-(2-methoxyethoxy)-6-(1-phenylethyl)-5,6-dihydro-1H-pyrazolo[4,3-g]quinazolin-7(8H)-one], which IC50 is on record?
The IC50 was 6.4 nM.

`C[C@H](c1ccccc1)N1Cc2cc3c(OCCO)n[nH]c3cc2NC1=O` [Example 37, (R)-3-(2-hydroxyethoxy)-6-(1-phenylethyl)-5,6-dihydro-1H-pyrazolo[4,3-g]quinazolin-7(8H)-one] was tested. Which IC50 did it give?
Its IC50 is 20 nM.

How did the IC50 turn out when `C[C@H](c1ccccc1)N1Cc2cc3c(OC4CCOC4)n[nH]c3cc2NC1=O` (stereo partly drawn) [Example 38, 6-((R)-1-phenylethyl)-3-((tetrahydrofuran-3-yl)oxy)-5,6-dihydro-1H-pyrazolo[4,3-g]quinazolin-7(8H)-one] was run?
Its IC50 is 21 nM.

How did the IC50 turn out when `C[C@H](c1ccccc1)N1Cc2cc3c(OC4CCOCC4)n[nH]c3cc2NC1=O` [Example 39, (R)-6-(1-phenylethyl)-3-((tetrahydro-2H-pyran-4-yl)oxy)-5,6-dihydro-1H-pyrazolo[4,3-g]quinazolin-7(8H)-one] was run?
The IC50 was 10 nM.

How did the IC50 turn out when `C[C@H](c1ccccc1)N1Cc2cc3c(C4CC4)n[nH]c3cc2NC1=O` [Example 40, (R)-3-cyclopropyl-6-(1-phenylethyl)-5,6-dihydro-1H-pyrazolo[4,3-g]quinazolin-7(8H)-one] was run?
Its IC50 is 24 nM.

Which IC50 does the source give for `C[C@H](c1ccccc1)N1Cc2cc3c(-c4ccnc(F)c4)n[nH]c3cc2NC1=O` [Example 41, (R)-3-(2-fluoropyridin-4-yl)-6-(1-phenylethyl)-5,6-dihydro-1H-pyrazolo[4,3-g]quinazolin-7(8H)-one] here?
The IC50 was 0.3 nM.

How did the IC50 turn out when `C[C@H](c1ccccc1)N1Cc2cc3c(N4CCOCC4)n[nH]c3cc2NC1=O` [Example 42, (R)-3-morpholino-6-(1-phenylethyl)-5,6-dihydro-1H-pyrazolo[4,3-g]quinazolin-7(8H)-one] was run?
Its IC50 is 9 nM.

For `C[C@H](c1ccccc1)N1Cc2cc3c(I)n[nH]c3cc2NC1=O` [Example 43, (R)-3-iodo-6-(1-phenylethyl)-5,6-dihydro-1H-pyrazolo[4,3-g]quinazolin-7(8H)-one], which IC50 is on record?
The IC50 was 48 nM.

Which IC50 does the source give for `C[C@H](c1ccccc1)N1Cc2cc3c(N4CCc5ncsc5C4)n[nH]c3cc2NC1=O` [Example 47, (R)-3-(6,7-dihydrothiazolo[5,4-c]pyridin-5(4H)-yl)-6-(1-phenylethyl)-5,6-dihydro-1H-pyrazolo[4,3-g]quinazolin-7(8H)-one] here?
Its IC50 is 24 nM.

Molecular target: Active Mouse ERK2 (mERK2) (Mus musculus (Mouse), UniProt P63085)
Sequence (P63085 whole entry): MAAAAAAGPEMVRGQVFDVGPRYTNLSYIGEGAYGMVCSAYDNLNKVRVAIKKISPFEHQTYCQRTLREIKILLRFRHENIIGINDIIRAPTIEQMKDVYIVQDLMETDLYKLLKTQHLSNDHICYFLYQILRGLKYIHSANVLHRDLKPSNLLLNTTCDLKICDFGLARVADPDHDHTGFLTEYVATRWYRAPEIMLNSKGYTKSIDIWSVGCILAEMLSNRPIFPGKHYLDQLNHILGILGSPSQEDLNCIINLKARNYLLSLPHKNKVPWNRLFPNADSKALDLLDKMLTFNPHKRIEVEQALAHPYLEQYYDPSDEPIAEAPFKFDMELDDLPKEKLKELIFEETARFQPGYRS
Assay: Active Mouse ERK2 (mERK2) Activity Assay (IMAP-FP)
Format: biochemical
Conditions: phosphorylated active mERK2 0.19 nM, 30 uM ATP, 10 point titration, read-out: ERK 2 MAPK1 Mouse IC50
Procedure: Active Mouse ERK2 (mERK2) Activity Assay:
Activated ERK2 activity was determined in an IMAP-FP assay (Molecular Devices). Using this assay format, the potency (IC50) of each compound was determined from a 10 point (1:3 serial dilution, 3 μM starting compound concentration) titration curve using the following outlined procedure. To each well of a black Corning 384-well plate (Corning Catalog #3575), 7.5 nL of compound (3333 fold dilution in final assay volume of 25 μL) was dispensed, followed by the addition of 15 μL of kinase buffer (tween containing kinase buffer, Molecular Devices) containing […] (0.316 nM) of phosphorylated active mERK2 enzyme. Following a 15 minute compound & enzyme incubation, each reaction was initiated by the addition of 10 μL kinase buffer containing 2.45 μM ERK2 IMAP substrate peptides (2.25 μM-unlabeled peptide and 200 nM-labeled peptide, and 75 μM ATP. The final reaction in each well of 25 μL consists of 0.19 nM mERK2, 900 nM unlabeled peptide, 80 nM labeled-peptide, and 30 uM ATP. Phosphorylation reactions were allowed to proceed for 45 minutes and were immediately quenched by the addition of 60 μL IMAP detection beads (1:1000 dilutions) in IMAP binding buffer (Molecular Devices) with 24 mM NaCl. Plates were read on EnVision reader after 60 minutes binding equilibration using Fluorescence Polarization protocol (Perkin Elmer).

With `Cc1cc(-c2n[nH]c3cc4[nH]c(=O)ccc4cc23)ccn1` [Example 1, 3-(2-methylpyridin-4-yl)-1,8-dihydro-7H-pyrazolo[4,3-g]quinolin-7-one] as the molecule, how does the IC50 read?
The IC50 was 0.4 nM.

With `Cc1cc(-c2n[nH]c3cc4[nH]c(=O)c(Br)cc4cc23)ccn1` [Example 2, 6-bromo-3-(2-methylpyridin-4-yl)-1,8-dihydro-7H-pyrazolo[4,3-g]quinolin-7-one] as the molecule, how does the IC50 read?
Its IC50 is 0.2 nM.

`Cc1cc(-c2n[nH]c3cc4[nH]c(=O)c(Cc5ccccc5)cc4cc23)ccn1` [Example 3, 6-benzyl-3-(2-methylpyridin-4-yl)-1,8-dihydro-7H-pyrazolo[4,3-g]quinolin-7-one] was tested. Which IC50 did it give?
Its IC50 is 0.2 nM.
